Test results taken from US20250270206A1, “COMPOSITIONS AND METHODS FOR INHIBITION OF RAS” (TheRas, Inc., priority 2022, published 2025).

Columns and labels:
[1] = target: T1, GppNHp-loaded KRAS4b (amino acids 1-169) G12C/C118S (Homo sapiens, UniProt P01116, C118S/G12C); assay: MALDI-TOF MS covalent Cys12 modification, GppNHp-loaded KRAS G12C; format: binding; conditions: 15 minutes reaction time, 1 μM protein, 1:2.5 protein to compound ratio
T1 construct: KRAS4b (amino acids 1-169) G12C/C118S protein; made in house
Experimental: (§1) MALDI-TOF MS analysis was performed using 1 μM protein target, and 1:2.5 protein to compound ratio was used.
(§2) Reaction: 1 μM of GppNHp, GTP, or GDP-loaded KRAS4b (amino acids 1-169) G12C/C118S protein (produced in-house by Protein Expression Laboratory, FNLCR/Leidos Biomed) in 20 mM 4-(2-hydroxyethyl)-1-piperazineethanesulfonic acid (HEPES) buffer containing 150 mM NaCl, 1 mM MgCl2, pH 7.3 was prepared freshly before assay. Ten-μL aliquots of protein were dispensed onto low volume 384-well plate, then 375 nL DMSO, and 25 nL of tested compounds from 5 mM DMSO stocks were added to appropriate wells using ECHO 555 acoustic liquid handler (Labcyte Inc.). For each reaction/assay, three blanks were prepared by mixing 10 μL of protein solution with 400 nL DMSO. The contents of the wells were carefully mixed by aspiration, and then each plate was sealed with an adhesive cover, centrifuged at 2000 g for 1 minute, and kept in the dark at room temperature until 5 min, 15 min, 30 min, 2 h, or 6 h collections.
(§3) Target pretreatment: Before each assay MALDI target (Bruker MPT 384 ground steel BC) was pre-treated by pipetting on each spot 0.75 μL of saturated sinapinic acid in acetonitrile (ACN).
(§4) Sample preparation: At collection time point, 2 μL of reaction mixtures were pipetted out into 20 μL MALDI matrix solution (saturated solution of sinapinic acid in 1:1 ACN:water solution containing 0.75% trifluoroacetic acid (TFA)) deposited on 384 well polypropylene plate. Resulting solution was mixed by aspiration, centrifuged at 2000 g for 1 minute, then 1 μL aliquots were dispensed on pre-treated MALDI target using Beckman Coulter Biomek FX^P 96/384-Span-8 Laboratory Automation Workstation. Finally, the MALDI target was dried under mild vacuum to produce spots with fine crystalline structure.
(§5) Measurements: MALDI-TOF measurements were performed on a Bruker Daltonics rapifleX Tissuetyper TOF-TOF mass spectrometer using linear mode and mass range from 18.6 to 21.6 kDa. Detector gain was set to 3.3× (483 V), sample rate to 5 GS/s, real time smoothing to medium (175 MHz), laser smart beam pattern was set to: “MS Thin Layer M5”, and the laser frequency was 10000 Hz. Spectra were automatically collected using custom AutoXecute method. Laser power was auto adjusted using fuzzy control. The peak selection range was set to be between 19000 and 21500 Da. Peak evaluation uses half width parameter set to be smaller than 40 Da for processed spectrograms (centroid peak detection: smoothed by SavitzkyGolay algorithm using 7 m/z width and 2 cycles; baseline was subtracted using median algorithm with flatness 1 and median level 0.01). Fuzzy control used Proteins/Oligonucleotides protocol with minimum half width 1/10 times above threshold. Up to 40000 satisfactory shots were collected in 10000 shot steps. Dynamic termination was implemented to finish data collection when peak signal/noise ratio reached a value of 50.
(§6) Spectra processing: Spectra were smoothed by SavitzkyGolay algorithm using 7 m/z width and three cycles. Centroid peak detection algorithm was used with signal to noise threshold set to 6, relative intensity threshold 4%, peak width 10 m/z and median baseline subtraction using flatness of 1 and median level of 0.01. Peak intensity and area under the peak were evaluated and recorded for all peaks between 19,300 Da and 21,550 Da.
(§7) Calculation of percent modification: Percent modification was calculated as a ratio of peak height for protein modified by compound to sum of peak height of remaining protein plus peak height for protein modified by compound. If multiple modifications were observed each was calculated as a ratio of peak height for given modification versus sum of peak heights for all observed protein species. Data reported in Table 5 are from the 15 minutes reaction time point.

pERK in NCI-H358 cells = assay: Cell-based pERK HTRF assay; conditions: Homo sapiens, 0.5 h, 30 min incubation
Experimental: pERK HTRF assays (Perkin Elmer) were used to determine the effectiveness of compounds of the present disclosure in disrupting KRAS G12C protein/effector signaling in cells.
On Day 1, cells (NCI-H358) were seeded into 96-well plates at 4×10^4 cells/well in complete growth media (RPMI, 10% FBS).
On Day 2, cells were treated with compounds at 0.25% DMSO. The source plate was created with compounds diluted in media at 5-fold the final assay concentration. The compounds were run in a 9-point concentration curve starting at 75 μM, with a 3-fold dilution between concentrations. 20 μL was transferred onto the cell plates (final volume in wells was 100 μL). Plates were harvested after 30 min incubation by aspirating media and adding kit-supplied 1× supplemented lysis buffer to all wells (75 μL per well). Plates were then placed on a plate shaker and incubated at 850 rpm for an additional 30 min.
Antibody mixture solution was prepared by diluting aliquoted d2 and Eu Cryptate antibodies 1:20 in kit supplied detection buffer, then mixed the diluted antibodies solutions (1:1 v:v). 4 μL of this solution was then added to a 384-well detection plate (Perkin Elmer; 6008230).
Samples were homogenized by pipetting up and down and then transferred (16 μL of cell lysates) from the 96-well cell culture plate to two wells of the HTRF 384-well detection plate containing the antibody solution. Plates were centrifuged (524 g for 1 min) and allowed to incubate between 4 and 24 h at room temperature. Maximum signal is reached after 4 h incubation time and remains stable over a period of 24 hours. Therefore, readings can be made between 4 and 24 h of incubation. Plates were centrifuged again (524 g for 1 min) and analyzed on the EnVision plate reader using the following settings: Excitation 320 nm, Bandwidth 75 nm; Emission 615 nm, Bandwidth 85 nm; Gain 100%; Flashes 100; Lag 60 μs.

[2] = target: T2, Avi-KRAS G12C (1-169) GppNHp/RAF1 RBD-3×FLAG (52-151) (Homo sapiens, UniProt P01116, G12C); assay: KRAS G12C-effector (RAF1 RBD) protein:protein interaction HTRF disruption assay; format: biochemical; conditions: PPI HTRF
T2 construct: Avi-KRAS G12C (1-169) GppNHp
Experimental: A protein:protein interaction (PPI) Homogeneous Time Resolved Fluorescence (HTRF) assay was used to determine the effectiveness of compounds of the present disclosure in disrupting KRAS G12C protein and effector (RAF1) binding.
The HTRF assay used the following reagents and proteins: 50 nM Avi-KRAS G12C (1-169) GppNHp/RAF1 RBD-3×FLAG (52-151); 75 nM Avi-RAF1 RBD-3×FLAG; Assay Buffer: 50 mM Tris pH 7.5, 100 mM NaCl, 5 mM MgCl2, 0.1% BSA, 0.01% Tween 20, 10% DMSO; Bead Buffer: 50 mM Tris pH 7.5, 0.01% Tween 20; Assay volume: 20 μL (384 well plate-low volume format); and Compound titration: 30-0.02 μM, 3× dilution series.
The HTRF assay employed the following protocol:
Compounds were dispensed in assay plate (384-well, Grenier Bione #784075) using Echo (model 555) with dose response settings: 200 nL final volume, titration from 100 μM as a 10-point dilution series. KRAS proteins were prepared in assay buffer, and dispensed on plates, 5 μL per well, then incubated for 1 h at room temperature, with 700 rpm shaking. RAF1 RBD were prepared in assay buffer, dispensed onto plates, 5 μL per well, and then incubated for 1 h at room temperature, with 700 rpm shaking. Reagent mix was then prepared and dispensed on plates, 10 μL per well, and then incubated for 1 h at room temperature, with 700 rpm shaking.
Plates were analyzed on an Envision plate reader using the following setting: Excitation 320 nm, Bandwidth 75 nm, Emission 615 nm, Bandwidth 85 nm; Gain 100%; Flashes 100; Lag 60 μs. Data was reported as percentage of activity, with DMSO as 100%. Data was plotted and analyzed using Prism 8.

[3] = target: T3, GDP-loaded KRAS4b (amino acids 1-169) G12C/C118S (Homo sapiens, UniProt P01116, C118S/G12C); assay: MALDI-TOF MS covalent Cys12 modification, GDP-loaded KRAS G12C; format: binding; conditions: 15 minutes reaction time, 1 μM protein, 1:2.5 protein to compound ratio
T3 construct: KRAS4b (amino acids 1-169) G12C/C118S protein; made in house
Experimental: as §1, §2, §3, §4, §5, §6, §7

[4] = target: T4, GTP-loaded KRAS4b (amino acids 1-169) G12C/C118S (Homo sapiens, UniProt P01116, C118S/G12C); assay: MALDI-TOF MS covalent Cys12 modification, GTP-loaded KRAS G12C; format: binding; conditions: 15 minutes reaction time, 1 μM protein, 1:2.5 protein to compound ratio
T4 construct: KRAS4b (amino acids 1-169) G12C/C118S protein; made in house
Experimental: as §1, §2, §3, §4, §5, §6, §7

Compound | GppNHp-KRAS G12C percent of modification [1] | IC50 (pERK in NCI-H358 cells) [nM] | IC50 [2] [nM] | GDP-KRAS G12C percent of modification [3] | GTP-KRAS G12C percent of modification [4]
C=CC(=O)N1C[C@@H](F)[C@@H](N(C)c2nc(OC[C@@]34CCCN3C[C@H](F)C4)nc3c(F)c(-c4ccc(F)c5sc(N)c(C#N)c45)ncc23)C1 [Compound 11] | A (percent of modification ≥70%) | ≤ 100 | ≤ 500 | A (percent of modification ≥70%) | A (percent of modification ≥70%)
C=CC(=O)N1C[C@H](F)[C@@H](N(C)c2nc(OC[C@@]34CCCN3C[C@H](F)C4)nc3c(F)c(-c4ccc(F)c5sc(N)c(C#N)c45)ncc23)C1 [Compound 12] | A (percent of modification ≥70%) | ≤ 100 | ≤ 500 | A (percent of modification ≥70%) | A (percent of modification ≥70%)
C=CC(=O)N1C[C@H](N(C)c2nc(OC[C@@]34CCCN3C[C@H](F)C4)nc3cc(-c4ccc(F)c5sc(N)c(C#N)c45)c(C(F)(F)F)nc23)C[C@H]1C [Compound 13] | C (10%≤percent of modification <50%) | ≤ 100 | ≤ 500 | C (10%≤percent of modification <50%) | C (10%≤percent of modification <50%)
C=CC(=O)N1CC[C@@H](N(C)c2nc(N3CC(N4CC5(CC5)C4)C3)nc3c(F)c(-c4ccc(F)c5sc(N)c(C#N)c45)ncc23)C1 [Compound 14, 2-amino-4-[2-[3-(5-azaspiro[2.3]hexan-5-yl)azetidin-1-yl]-8-fluoro-4-[methyl-[(3R)-1-prop-2-enoylpyrrolidin-3-yl]amino]pyrido[4,3-d]pyrimidin-7-yl]-7-fluoro-benzothiophene-3-carbonitrile] | C (10%≤percent of modification <50%) | 100 to 1000 | ≤ 500 | A (percent of modification ≥70%) | C (10%≤percent of modification <50%)
C=CC(=O)N1CC[C@@H](N(C)c2nc(OC[C@@]34CCCN3C[C@H](F)C4)nc3cc(-c4ccc(F)c5sc(N)c(C#N)c45)c(C(F)(F)F)nc23)[C@H]1C [Compound 15] | A (percent of modification ≥70%) | ≤ 100 | ≤ 500 | A (percent of modification ≥70%) | A (percent of modification ≥70%)
C=CC(=O)N1CC[C@@H](N(C)c2nc(OC[C@@]34CCCN3C[C@H](F)C4)nc3c(F)c(-c4ccc(F)c5sc(N)c(C#N)c45)ncc23)[C@H]1C [Compound 17, 4-(4-(((2R,3R)-1-acryloyl-2-methylpyrrolidin-3-yl)(methyl)amino)-8-fluoro-2-(((2R,7aS)-2-fluorotetrahydro-1H-pyrrolizin-7a(5H)-yl)methoxy)pyrido[4,3-d]pyrimidin-7-yl)-2-amino-7-fluorobenzo[b]thiophene-3-carbonitrile] | A (percent of modification ≥70%) | ≤ 100 | ≤ 500 | A (percent of modification ≥70%) | A (percent of modification ≥70%)
C=CC(=O)N1C[C@@H](F)[C@@H](N(CC)c2nc(OC[C@@]34CCCN3C[C@H](F)C4)nc3c(F)c(-c4ccc(F)c5sc(N)c(C#N)c45)ncc23)C1 [Compound 18] | A (percent of modification ≥70%) | ≤ 100 | ≤ 500 | A (percent of modification ≥70%) | A (percent of modification ≥70%)
C=CC(=O)N1CCC(N(CC)c2nc(OC[C@@]34CCCN3C[C@H](F)C4)nc3c(F)c(-c4ccc(F)c5sc(N)c(C#N)c45)ncc23)[C@H]1C (stereo partly drawn) [Compound 19] | A (percent of modification ≥70%) | ≤ 100 | ≤ 500 | A (percent of modification ≥70%) | A (percent of modification ≥70%)
C=CC(=O)N1CCC(N(C)c2nc(OC[C@@H]3C[C@@H](OC)CN3C)nc3c(F)c(-c4ccc(F)c5sc(N)c(C#N)c45)ncc23)[C@H]1COC (stereo partly drawn) [Compound 20] | A (percent of modification ≥70%) | 100 to 1000 | ≤ 500 | A (percent of modification ≥70%) | A (percent of modification ≥70%)
